Results published in PubChem BioAssay (NCI).
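48-hour exposure; five concentrations; linearly interpolated endpoints. Here, GI50 denotes the concentration required for 50% inhibition of growth. TGI: total growth inhibition.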

What was measured:
Test in all cases: inhibition of tumour cell growth, NCI panel, 48 h
HCT-116 colon = tested on: HCT-116 colon
HOP-92 NSCLC = tested on: HOP-92 NSCLC
OVCAR-3 ovarian = tested on: OVCAR-3 ovarian
SW-620 colon = tested on: SW-620 colon
SK-MEL-2 melanoma = tested on: SK-MEL-2 melanoma
UO-31 renal = tested on: UO-31 renal
OVCAR-5 ovarian = tested on: OVCAR-5 ovarian
HT29 colon = tested on: HT29 colon
OVCAR-8 ovarian = tested on: OVCAR-8 ovarian
NCI/ADR-RES ovarian = tested on: NCI/ADR-RES ovarian

| SMILES | TGI (HCT-116 colon) [µM] | TGI (HOP-92 NSCLC) [µM] | TGI (OVCAR-3 ovarian) [µM] | TGI (SW-620 colon) [µM] | TGI (SK-MEL-2 melanoma) [µM] | TGI (UO-31 renal) [µM] | TGI (OVCAR-5 ovarian) [µM] | TGI (HT29 colon) [µM] | TGI (OVCAR-8 ovarian) [µM] | GI50 (HCT-116 colon) [µM] | GI50 (OVCAR-3 ovarian) [µM] | GI50 (NCI/ADR-RES ovarian) [µM] | TGI (NCI/ADR-RES ovarian) [µM] | GI50 (SW-620 colon) [µM] | GI50 (SK-MEL-2 melanoma) [µM] | GI50 (UO-31 renal) [µM] | GI50 (OVCAR-5 ovarian) [µM] | GI50 (HT29 colon) [µM] | GI50 (OVCAR-8 ovarian) [µM] | GI50 (HOP-92 NSCLC) [µM] |
| --- | --- | --- | --- | --- | --- | --- | --- | --- | --- | --- | --- | --- | --- | --- | --- | --- | --- | --- | --- | --- |
| CCc1cccc(C(C)C)c1C1C(=O)C(=O)N(c2nc3ccccc3s2)C(=O)C1=O | > 100 | > 100 | > 100 | > 100 | > 100 | > 100 | > 100 | > 100 |  |  |  |  |  |  |  |  |  |  |  |  |
| Cc1nn(C(=O)CC(=O)Nc2ccccc2Cl)c(C)c1N=Nc1ccccc1Cl | > 100 | > 100 | > 100 | > 100 | > 100 | > 100 | > 100 | > 100 | > 100 |  |  |  |  |  |  |  |  |  |  |  |
| CCCCCC1C2C(=O)NC(=O)C1C(=O)NC2=O (stereo unspecified) |  | > 100 | > 100 | > 100 | > 100 | > 100 | > 100 | > 100 | > 100 |  |  |  |  |  |  |  |  |  |  |  |
| Cc1nn(-c2ccccc2)c2ncc3c(c12)C(=O)N(Cc1ccccc1)C3=O | 6.67 |  | 9.84 | > 100 | 31.5 | 8.17 | > 100 | > 100 | > 100 | 1.21 | 3.31 | 4.46 | > 100 | > 100 | 13.7 | 2.65 | > 100 | > 100 | 5.14 |  |
| O=C1c2cccc3cc4ccccc4c(c23)C(=O)N1CCCNCCNCCCN1C(=O)c2cccc3cc4ccccc4c(c23)C1=O | 0.168 |  | 1.86 |  |  | 1.96 | 1.98 | 0.555 | 0.337 |  |  |  |  |  |  |  |  |  |  |  |
| Nc1n[nH]c(=O)c2c1c(Br)cn2C1OC(CO)C(O)C1O (stereo unspecified) | > 40.6 | 7.59 | > 50.8 | > 100 | 41.4 | 26.8 | 44 | > 100 | 6.23 |  |  |  |  |  |  |  |  |  |  |  |
| NCCN.O=N[O-].O=N[O-].O=N[O-].O=N[O-].[Co+3].[K+] | > 100 | > 100 | > 100 | > 100 | > 100 | > 100 | > 100 | > 100 | > 100 | > 100 | > 100 |  |  | > 100 | > 100 | > 100 | > 100 | > 100 | > 100 | 85.7 |
| CC(=O)NC1C(=O)CC(c2ccccc2)N(C)C1c1ccccc1 (stereo unspecified) | > 100 | > 100 | > 100 | > 100 | > 100 | > 100 | > 100 | > 100 | > 100 |  |  |  |  |  |  |  |  |  |  |  |
| O=c1c2ccccc2nc(-c2ccccc2Cl)n1NC1OC(CO)C(O)C(O)C1O (stereo unspecified) | > 100 | > 100 | > 100 | > 100 | > 100 | > 100 | > 100 | > 100 | > 100 |  |  |  |  |  |  |  |  |  |  |  |
| Cc1cn2cc(-c3ccncc3)nc2s1 | > 100 | > 100 | > 100 | > 100 | > 100 | > 100 | > 100 | > 100 | > 100 |  |  |  |  |  |  |  |  |  |  |  |
| COCC(O)CN1C(N)=NC(O)C1O (stereo unspecified) |  | > 100 |  | > 100 | > 100 | > 100 | > 100 | > 100 | > 100 |  |  |  |  |  |  |  |  |  |  |  |
| Nc1cc2[nH]c(=O)c3cc(Cl)ccc3c2cc1Cl | 68.8 |  | 29.4 | > 100 | > 100 | 30.5 | > 100 | > 100 | 13.5 |  |  |  | 86.1 |  |  |  |  |  |  |  |
| CC/C(=C(\c1ccccc1)c1ccc(OCC[N+](C)(C)C)cc1)c1ccccc1 | 31.7 |  | 20.3 | 30 | 30.2 | 38.7 |  | 29.6 | 37.9 |  |  |  |  |  |  |  |  |  |  |  |
| C/C(=C1/N=C(c2ccccc2)OC1=O)c1cccs1 | > 100 | > 100 | > 100 | > 100 | > 100 |  | > 100 | > 100 | > 100 |  |  |  |  |  |  |  |  |  |  |  |
| CC(=O)/C=C\C(=O)NNS(=O)(=O)c1ccc(C)cc1 | > 100 | > 100 | > 100 | > 100 | > 100 | > 100 | > 100 | > 100 | > 100 |  |  |  |  |  |  |  |  |  |  |  |
| COc1cc(/C=C/C(=O)C(C)(C)C)cc(OC)c1OC | > 100 | > 100 | > 100 | 81.2 | > 100 | > 100 | > 100 | > 100 | > 100 |  |  |  |  |  |  |  |  |  |  |  |
| O=C(Cc1nc2ccccc2s1)C(=O)Nc1ccccc1C(F)(F)F | > 100 | > 100 | > 100 | > 100 | > 100 | > 100 | > 100 | > 100 | > 100 |  |  |  |  |  |  |  |  |  |  |  |
